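Method: 48-hour compound exposure of cells in 96-well plates, five concentrations, linear interpolation of endpoints. GI50 = concentration required for 50% inhibition of growth. TGI: total growth inhibition.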
How the values were obtained:
Assay in all cases: NCI anticancer screen, dose series, 48 h
NCI-H460 lung = test system: NCI-H460 lung
U251 CNS = test system: U251 CNS
LOX IMVI melanoma = test system: LOX IMVI melanoma
SF-295 CNS = test system: SF-295 CNS
M14 melanoma = test system: M14 melanoma
HS 578T breast = test system: HS 578T breast
KM12 colon = test system: KM12 colon
OVCAR-8 ovarian = test system: OVCAR-8 ovarian
SR leukemia = test system: SR leukemia
SNB-75 CNS = test system: SNB-75 CNS
HT29 colon = test system: HT29 colon
RPMI-8226 leukemia = test system: RPMI-8226 leukemia
A549 NSCLC = test system: A549 NSCLC
HOP-62 NSCLC = test system: HOP-62 NSCLC
NCI/ADR-RES ovarian = test system: NCI/ADR-RES ovarian
DU-145 prostate = test system: DU-145 prostate
CAKI-1 renal = test system: CAKI-1 renal
MDA-MB-231 breast = test system: MDA-MB-231 breast
NCI-H522 lung = test system: NCI-H522 lung
IGROV1 ovarian = test system: IGROV1 ovarian
COLO 205 colon = test system: COLO 205 colon
TK-10 renal = test system: TK-10 renal
UACC-62 melanoma = test system: UACC-62 melanoma
SNB-19 CNS = test system: SNB-19 CNS
UO-31 renal = test system: UO-31 renal
UACC-257 melanoma = test system: UACC-257 melanoma
K-562 leukemia = test system: K-562 leukemia
OVCAR-5 ovarian = test system: OVCAR-5 ovarian
MCF7 breast = test system: MCF7 breast
HL-60(TB) leukemia = test system: HL-60(TB) leukemia
MDA-MB-435 = test system: MDA-MB-435
SF-268 CNS = test system: SF-268 CNS
CCRF-CEM leukemia = test system: CCRF-CEM leukemia
HCT-15 colon = test system: HCT-15 colon
SK-OV-3 ovarian = test system: SK-OV-3 ovarian
NCI-H23 lung = test system: NCI-H23 lung
OVCAR-4 ovarian = test system: OVCAR-4 ovarian
PC-3 prostate = test system: PC-3 prostate
OVCAR-3 ovarian = test system: OVCAR-3 ovarian
SN12C renal = test system: SN12C renal
T-47D breast = test system: T-47D breast
SF-539 CNS = test system: SF-539 CNS
RXF 393 renal = test system: RXF 393 renal
MOLT-4 leukemia = test system: MOLT-4 leukemia
786-0 renal = test system: 786-0 renal
HCT-116 colon = test system: HCT-116 colon
SK-MEL-28 melanoma = test system: SK-MEL-28 melanoma
EKVX NSCLC = test system: EKVX NSCLC
ACHN renal = test system: ACHN renal
NCI-H226 lung = test system: NCI-H226 lung
A498 renal = test system: A498 renal
SK-MEL-5 melanoma = test system: SK-MEL-5 melanoma
SW-620 colon = test system: SW-620 colon
HCC-2998 colon = test system: HCC-2998 colon
BT-549 breast = test system: BT-549 breast
SK-MEL-2 melanoma = test system: SK-MEL-2 melanoma
MALME-3M melanoma = test system: MALME-3M melanoma

O=C(O)c1c[nH]c2c(OCc3ccccc3)c3ccccc3c(O)c2c1=O
GI50 (NCI-H460 lung): 14.9 µM
TGI (NCI-H460 lung): 38.7 µM
GI50 (U251 CNS): 2.43 µM
TGI (U251 CNS): 5.19 µM
GI50 (LOX IMVI melanoma): 3.24 µM
TGI (LOX IMVI melanoma): 11 µM
GI50 (SF-295 CNS): 13 µM
TGI (SF-295 CNS): 27.8 µM
GI50 (M14 melanoma): 12.6 µM
TGI (M14 melanoma): 25.2 µM
GI50 (HS 578T breast): 33.2 µM
TGI (HS 578T breast): 70.1 µM
GI50 (KM12 colon): 12.6 µM
TGI (KM12 colon): 29.4 µM
GI50 (OVCAR-8 ovarian): 11.8 µM
TGI (OVCAR-8 ovarian): 40.9 µM
GI50 (SR leukemia): 28.3 µM
TGI (SR leukemia): 59.6 µM
GI50 (SNB-75 CNS): 19.5 µM
TGI (SNB-75 CNS): 43.1 µM
GI50 (HT29 colon): 21.7 µM
TGI (HT29 colon): 58.8 µM
GI50 (RPMI-8226 leukemia): 9.04 µM
TGI (RPMI-8226 leukemia): 35.8 µM
GI50 (A549 NSCLC): 16.4 µM
TGI (A549 NSCLC): 30.7 µM
GI50 (HOP-62 NSCLC): 17.5 µM
TGI (HOP-62 NSCLC): 31.4 µM
GI50 (NCI/ADR-RES ovarian): 16.5 µM
TGI (NCI/ADR-RES ovarian): 47.7 µM
GI50 (DU-145 prostate): 21.1 µM
TGI (DU-145 prostate): 37.2 µM
GI50 (CAKI-1 renal): 17 µM
TGI (CAKI-1 renal): 35 µM
GI50 (MDA-MB-231 breast): 20.2 µM
TGI (MDA-MB-231 breast): > 100 µM
GI50 (NCI-H522 lung): 25.7 µM
TGI (NCI-H522 lung): > 100 µM
GI50 (IGROV1 ovarian): 18.7 µM
TGI (IGROV1 ovarian): > 100 µM
GI50 (COLO 205 colon): 17.6 µM
TGI (COLO 205 colon): 34.7 µM
GI50 (TK-10 renal): 22.8 µM
TGI (TK-10 renal): 43.4 µM
GI50 (UACC-62 melanoma): 3.97 µM
TGI (UACC-62 melanoma): 13.3 µM
GI50 (SNB-19 CNS): 17.7 µM
TGI (SNB-19 CNS): 42.9 µM
GI50 (UO-31 renal): 20 µM
TGI (UO-31 renal): > 100 µM
GI50 (UACC-257 melanoma): 11.8 µM
TGI (UACC-257 melanoma): 24.2 µM
GI50 (K-562 leukemia): 3.2 µM
TGI (K-562 leukemia): > 100 µM
GI50 (OVCAR-5 ovarian): 20 µM
TGI (OVCAR-5 ovarian): 34.2 µM
GI50 (MCF7 breast): 14.9 µM
TGI (MCF7 breast): 34.3 µM
GI50 (HL-60(TB) leukemia): 19.7 µM
TGI (HL-60(TB) leukemia): 46.1 µM
GI50 (MDA-MB-435): 2.18 µM
TGI (MDA-MB-435): 4.08 µM
GI50 (SF-268 CNS): 22.4 µM
TGI (SF-268 CNS): 64 µM
GI50 (CCRF-CEM leukemia): 10 µM
TGI (CCRF-CEM leukemia): 34.7 µM
GI50 (HCT-15 colon): 16.6 µM
TGI (HCT-15 colon): 31.9 µM
GI50 (SK-OV-3 ovarian): 23.7 µM
TGI (SK-OV-3 ovarian): 85.6 µM
GI50 (NCI-H23 lung): 3.22 µM
TGI (NCI-H23 lung): 14.3 µM
GI50 (OVCAR-4 ovarian): 43.6 µM
TGI (OVCAR-4 ovarian): > 100 µM
GI50 (PC-3 prostate): 15.1 µM
TGI (PC-3 prostate): 45.9 µM
GI50 (OVCAR-3 ovarian): 1.86 µM
TGI (OVCAR-3 ovarian): 11.8 µM
GI50 (SN12C renal): 11.3 µM
TGI (SN12C renal): 23.3 µM
GI50 (T-47D breast): 21.5 µM
TGI (T-47D breast): 73.8 µM
GI50 (SF-539 CNS): 19.7 µM
TGI (SF-539 CNS): 36.4 µM
GI50 (RXF 393 renal): 23.4 µM
TGI (RXF 393 renal): 45.6 µM
GI50 (MOLT-4 leukemia): 15.6 µM
TGI (MOLT-4 leukemia): 36.9 µM
GI50 (786-0 renal): 21.7 µM
TGI (786-0 renal): 43.9 µM
GI50 (HCT-116 colon): 15 µM
TGI (HCT-116 colon): 28.2 µM
GI50 (SK-MEL-28 melanoma): 19.3 µM
TGI (SK-MEL-28 melanoma): 36.9 µM

COc1cc(-n2cnc(-c3ccc(Cl)cc3)c2)cc(OC)c1OC
GI50 (NCI-H460 lung): 18.6 µM
TGI (NCI-H460 lung): 36.8 µM
GI50 (U251 CNS): 22.2 µM
TGI (U251 CNS): 57.8 µM
GI50 (LOX IMVI melanoma): 18 µM
TGI (LOX IMVI melanoma): 34.3 µM
GI50 (SF-295 CNS): 17.6 µM
TGI (SF-295 CNS): 38.1 µM
GI50 (EKVX NSCLC): > 100 µM
TGI (EKVX NSCLC): > 100 µM
GI50 (M14 melanoma): 73 µM
TGI (M14 melanoma): > 100 µM
GI50 (HS 578T breast): 49.2 µM
TGI (HS 578T breast): > 100 µM
GI50 (KM12 colon): > 100 µM
TGI (KM12 colon): > 100 µM
GI50 (OVCAR-8 ovarian): > 100 µM
TGI (OVCAR-8 ovarian): > 100 µM
GI50 (ACHN renal): 19.8 µM
TGI (ACHN renal): 57.3 µM
GI50 (SR leukemia): 25.4 µM
TGI (SR leukemia): 62.2 µM
GI50 (NCI-H226 lung): > 100 µM
TGI (NCI-H226 lung): > 100 µM
GI50 (SNB-75 CNS): 16.5 µM
TGI (SNB-75 CNS): 34.8 µM
GI50 (HT29 colon): 16.1 µM
TGI (HT29 colon): 32.8 µM
GI50 (RPMI-8226 leukemia): 14.7 µM
TGI (RPMI-8226 leukemia): 32.2 µM
GI50 (A549 NSCLC): > 100 µM
TGI (A549 NSCLC): > 100 µM
GI50 (HOP-62 NSCLC): 24.1 µM
TGI (HOP-62 NSCLC): 71.5 µM
GI50 (NCI/ADR-RES ovarian): 16.9 µM
TGI (NCI/ADR-RES ovarian): 45.1 µM
GI50 (DU-145 prostate): > 100 µM
TGI (DU-145 prostate): > 100 µM
GI50 (CAKI-1 renal): 24.9 µM
TGI (CAKI-1 renal): > 100 µM
GI50 (MDA-MB-231 breast): 85.7 µM
TGI (MDA-MB-231 breast): > 100 µM
GI50 (NCI-H522 lung): 15.6 µM
TGI (NCI-H522 lung): 34.3 µM
GI50 (IGROV1 ovarian): 30.7 µM
TGI (IGROV1 ovarian): > 100 µM
GI50 (COLO 205 colon): 15.4 µM
TGI (COLO 205 colon): 29.8 µM
GI50 (TK-10 renal): 15 µM
TGI (TK-10 renal): 37.4 µM
GI50 (A498 renal): 14.2 µM
TGI (A498 renal): 31.6 µM
GI50 (UACC-62 melanoma): 62.4 µM
TGI (UACC-62 melanoma): > 100 µM
GI50 (SNB-19 CNS): > 100 µM
TGI (SNB-19 CNS): > 100 µM
GI50 (UO-31 renal): 15.6 µM
TGI (UO-31 renal): 40.5 µM
GI50 (UACC-257 melanoma): 18.3 µM
TGI (UACC-257 melanoma): 34.1 µM
GI50 (K-562 leukemia): 7.33 µM
TGI (K-562 leukemia): 29.5 µM
GI50 (OVCAR-5 ovarian): 18.6 µM
TGI (OVCAR-5 ovarian): 45.4 µM
GI50 (MCF7 breast): 17.9 µM
TGI (MCF7 breast): 34.7 µM
GI50 (HL-60(TB) leukemia): 15.3 µM
TGI (HL-60(TB) leukemia): 35.4 µM
GI50 (MDA-MB-435): 38.4 µM
TGI (MDA-MB-435): > 100 µM
GI50 (SF-268 CNS): 22.9 µM
TGI (SF-268 CNS): 63.2 µM
GI50 (CCRF-CEM leukemia): 21.4 µM
TGI (CCRF-CEM leukemia): 44.8 µM
GI50 (SK-MEL-5 melanoma): 67.8 µM
TGI (SK-MEL-5 melanoma): > 100 µM
GI50 (HCT-15 colon): 16.8 µM
TGI (HCT-15 colon): 36.3 µM
GI50 (SK-OV-3 ovarian): 21.2 µM
TGI (SK-OV-3 ovarian): 52.2 µM
GI50 (NCI-H23 lung): 17.9 µM
TGI (NCI-H23 lung): 35 µM
GI50 (SW-620 colon): > 100 µM
TGI (SW-620 colon): > 100 µM
GI50 (OVCAR-4 ovarian): 15.8 µM
TGI (OVCAR-4 ovarian): 46.6 µM
GI50 (PC-3 prostate): 12.7 µM
TGI (PC-3 prostate): 31.7 µM
GI50 (OVCAR-3 ovarian): > 100 µM
TGI (OVCAR-3 ovarian): > 100 µM
GI50 (SN12C renal): > 100 µM
TGI (SN12C renal): > 100 µM
GI50 (HCC-2998 colon): 16.8 µM
TGI (HCC-2998 colon): 30.4 µM
GI50 (SF-539 CNS): 17.1 µM
TGI (SF-539 CNS): 34.4 µM
GI50 (MOLT-4 leukemia): 19.2 µM
TGI (MOLT-4 leukemia): 39.9 µM
GI50 (BT-549 breast): 16.7 µM
TGI (BT-549 breast): 31.3 µM
GI50 (SK-MEL-2 melanoma): 18.3 µM
TGI (SK-MEL-2 melanoma): 40.1 µM
GI50 (786-0 renal): > 100 µM
TGI (786-0 renal): > 100 µM
GI50 (HCT-116 colon): > 100 µM
TGI (HCT-116 colon): > 100 µM
GI50 (MALME-3M melanoma): 16.1 µM
TGI (MALME-3M melanoma): 32.9 µM
GI50 (SK-MEL-28 melanoma): 15.5 µM
TGI (SK-MEL-28 melanoma): 29.7 µM

— PubChem BioAssay (NCI)
